Reference: ChEMBL document CHEMBL1153920, “4,4-Difluorinated analogues of l-arginine and N(G)-hydroxy-l-arginine as mechanistic probes for nitric oxide synthase” (Bioorg Med Chem Lett, 2009)

Assays:
[1] = biological target: T1, Nitric oxide synthase, inducible (Homo sapiens, UniProt P35228); assay: Activity of iNOS assessed as increase in Kcat by indirect spectral assay relative to N'G-hydroxy-L-arginine
[2] = biological target: T1, Nitric oxide synthase, inducible; assay: Binding affinity to iNOS with heme domain construct assessed as spectral binding constant by spectral assay

T1 sequence (P35228 whole entry, the tested form may be a part): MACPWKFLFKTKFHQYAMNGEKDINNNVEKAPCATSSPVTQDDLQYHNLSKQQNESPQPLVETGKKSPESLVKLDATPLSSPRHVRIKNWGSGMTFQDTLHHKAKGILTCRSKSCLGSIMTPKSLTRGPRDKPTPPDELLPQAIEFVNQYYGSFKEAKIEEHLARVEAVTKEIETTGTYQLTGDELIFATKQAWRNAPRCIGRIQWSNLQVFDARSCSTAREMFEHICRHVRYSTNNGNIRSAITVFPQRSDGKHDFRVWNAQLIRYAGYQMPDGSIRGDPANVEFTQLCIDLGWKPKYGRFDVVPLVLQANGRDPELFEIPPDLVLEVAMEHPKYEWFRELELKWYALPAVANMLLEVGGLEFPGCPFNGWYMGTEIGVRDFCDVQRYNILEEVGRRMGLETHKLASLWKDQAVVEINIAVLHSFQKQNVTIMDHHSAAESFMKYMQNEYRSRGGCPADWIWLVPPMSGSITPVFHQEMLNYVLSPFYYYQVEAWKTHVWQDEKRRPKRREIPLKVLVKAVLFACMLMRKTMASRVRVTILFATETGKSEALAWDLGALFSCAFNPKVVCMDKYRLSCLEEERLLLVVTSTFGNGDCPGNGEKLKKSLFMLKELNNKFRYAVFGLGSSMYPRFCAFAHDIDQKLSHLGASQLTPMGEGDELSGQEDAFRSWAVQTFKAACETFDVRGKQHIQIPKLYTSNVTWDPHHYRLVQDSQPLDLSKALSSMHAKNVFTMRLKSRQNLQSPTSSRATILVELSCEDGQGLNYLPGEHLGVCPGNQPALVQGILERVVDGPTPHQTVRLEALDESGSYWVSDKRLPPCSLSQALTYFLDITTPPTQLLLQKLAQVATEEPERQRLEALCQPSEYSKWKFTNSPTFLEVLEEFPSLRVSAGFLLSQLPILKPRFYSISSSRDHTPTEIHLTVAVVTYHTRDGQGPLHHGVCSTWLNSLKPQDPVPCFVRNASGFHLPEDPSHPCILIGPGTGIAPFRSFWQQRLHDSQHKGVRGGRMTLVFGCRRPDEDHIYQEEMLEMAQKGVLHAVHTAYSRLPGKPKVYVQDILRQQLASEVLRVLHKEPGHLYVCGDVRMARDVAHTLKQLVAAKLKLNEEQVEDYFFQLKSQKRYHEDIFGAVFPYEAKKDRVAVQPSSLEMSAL

Compound	Activity [1] [%]	Kd [2] [µM]
N=C(N)NCC(F)(F)C[C@H](N)C(=O)O	10	3100
N=C(NO)NCCC[C@H](N)C(=O)O		5.1
N/C(=N\O)NCC(F)(F)C[C@H](N)C(=O)O	30	116
